According to ChEMBL document CHEMBL4813909, “Heterocyclic Diamidine DNA Ligands as HOXA9 Transcription Factor Inhibitors: Design, Molecular Evaluation, and Cellular Consequences in a HOXA9-Dependant Leukemia Cell Model” (J Med Chem, 2019):
pIC50: −log10 of the molar value. Active and inactive are the calls of the source. No cut-off for these calls is given here.

Tests used:
[1] = Drug localization in nucleus of human HT-29 cells at 5 uM incubated for 16 hrs by DiOC6/propidium iodide staining based by fluorescence microscopy; format: ADME, subcellular; settings: ht-29, 16 h
HOXA9 DNA binding site [2] = assay: Inhibition of HOXA9 (unknown origin) expressed in reticulocyte lysate system binding to 32P-radiolabeled DNA Hoxa9-binding site (strand a-CTGCGATGATTTACGACCGC /strand b-GCGGTCGTAAATCATCGCAG) (unknown origin) assessed as HOXA9/DNA inhibition at 2.5 to 20 uM incubated for 20 mins by electrophoretic mobility shift assay relative to control; format: subcellular; settings: dose 2.5-20 µM
[3] = Drug localization in nucleus of mouse MigA9 cells at 20 uM incubated for 2 hrs by TO-PRO-3/propidium iodide staining based by fluorescence microscopy; format: ADME, subcellular; settings: miga9, 2 h
[4] = Induction of cell death in mouse MigA9 cells harboring mouse Hoxa9 gene assessed as propidium iodide-positive cells at 15 uM incubated for 24 hrs by propidium iodide staining based flow cytometry (reference value: 9.06 +/- 0.53%); format: functional
[5] = Induction of cell death in mouse MigA9 cells harboring mouse Hoxa9 gene assessed as propidium iodide-positive cells at 20 uM incubated for 24 hrs by propidium iodide staining based flow cytometry (reference value: 9.06 +/- 0.53%); format: functional
[6] = Induction of cell cycle arrest in mouse MigA9 cells harboring mouse Hoxa9 gene assessed as accumulation at sub-G1 phase at 20 uM incubated for 48 hrs by propidium iodide staining based flow cytometry (reference value: 0.76 +/- 0.1%); format: functional
[7] = Cytotoxicity against mouse MigA9 cells harboring mouse Hoxa9 gene incubated for 72 hrs by MTS assay; format: functional, cell-based; settings: MigA9, 72 h
[8] = Induction of cell cycle arrest in mouse MigA9 cells harboring mouse Hoxa9 gene assessed as accumulation at sub-G1 phase at 5 uM incubated for 48 hrs by propidium iodide staining based flow cytometry (reference value: 0.76 +/- 0.1%); format: functional
[9] = Induction of cell cycle arrest in mouse MigA9 cells expressing mouse Hoxa9 assessed as accumulation at S phase at 5 uM incubated for 48 hrs by EdU/propidium iodide staining based flow cytometry (reference value: 46.68 +/- 0.21%); format: functional
[10] = Induction of cell death in mouse MigA9 cells harboring mouse Hoxa9 gene assessed as propidium iodide-positive cells at 5 uM incubated for 24 hrs by propidium iodide staining based flow cytometry (reference value: 9.06 +/- 0.53%); format: functional
[11] = Induction of cell cycle arrest in mouse MigA9 cells expressing mouse Hoxa9 assessed as accumulation at G0/G1 phase at 5 uM incubated for 48 hrs by EdU/propidium iodide staining based flow cytometry (reference value: 48.77 +/- 0.19%); format: functional
HOXA9 DNA binding site [12] = settings: dose 1.0 µM
[13] = Induction of cell death in mouse MigA9 cells harboring mouse Hoxa9 gene assessed as propidium iodide-positive cells at 5 uM incubated for 48 hrs by propidium iodide staining based flow cytometry (reference value: 8.75 +/- 0.2%); format: functional
[14] = Induction of cell cycle arrest in mouse MigA9 cells expressing mouse Hoxa9 assessed as accumulation at G2/M phase at 5 uM incubated for 48 hrs by EdU/propidium iodide staining based flow cytometry (reference value: 4.55 +/- 0.16%); format: functional
HOXA9 DNA binding site [15] = settings: dose 0.5-1 µM
HOXA9 DNA binding site [16] = settings: dose 0.5 µM

With N=C(N)c1ccc(-c2ccc(-c3nc4ccc(C(=N)N)cc4[nH]3)o2)c(O)c1 as the compound, how does the Drug transport [1] read?
The Drug transport was “Active”.

Which results are given for N=C(N)c1ccc2nc(-c3ccc(-c4ccc(C(=N)N)nc4)o3)[nH]c2c1?
Drug transport [1]: Active; inhibition (HOXA9 DNA binding site [2]): inactive

For CC(C)n1c(-c2ccc(-c3ccc(C(=N)N)cc3)s2)nc2cc(-c3ccc(C(=N)N)cc3)ccc21, which Drug transport [3] is on record?
The Drug transport was “Active”.

For N=C(N)c1ccc(-c2cnc(-c3ccc(C(=N)N)cc3)s2)cc1, which Activity ([4]; dose 15 µM, time 24 hrs) is on record?
The Activity was 5.69%.

What about the Activity ([5]; dose 20 µM, time 24 hrs) of the same compound?
Its Activity is 5.91%.

What about the Activity [6] of the same compound?
Its Activity is 1.71%.

And the inhibition (HOXA9 DNA binding site [2])?
Its inhibition is “Active”.

What about the Drug transport [3] of the same compound?
The Drug transport was “Active”.

For N=C(N)c1ccc(-n2ccc(-c3nc4ccc(C(=N)N)cc4[nH]3)n2)cc1, which Activity ([4]; miga9, at 15 µM) is on record?
The Activity was 8.64%.

And the Activity ([5]; miga9, at 20 µM)?
The Activity was 10.43%.

What about the Activity [6] of the same compound?
Its Activity is 0.67%.

What about the pIC50 [7] of the same compound?
The pIC50 was under 4.30.

Which Activity [8] does the source give for N=C(N)c1ccc(-c2ccc(-c3cc4ccc(C(=N)N)cc4[nH]3)s2)cc1 here?
Its Activity is 33.64%.

What about the Activity [9] of the same compound?
The Activity was 9.15%.

And the Activity [10]?
Its Activity is 7.42%.

What about the Activity [11] of the same compound?
Its Activity is 77.92%.

And the ΔTm (HOXA9 DNA binding site [12])?
The ΔTm was over 10 °C.

And the Drug transport [3]?
Its Drug transport is “Active”.

What about the Activity [13] of the same compound?
The Activity was 77.87%.

And the Activity [14]?
Its Activity is 12.93%.

With N=C(N)c1ccc(-c2ccc(-c3ccc(C(=N)N)cc3)o2)cc1 [FURAMIDINE] as the compound, how does the Drug transport [3] read?
The Drug transport was “Active”.

For Cn1c(-c2ccc(-c3ccc(-c4nc5cc(C(=N)N)ccc5n4C)s3)cc2)nc2cc(C(=N)N)ccc21, which inhibition (HOXA9 DNA binding site [2]) is on record?
The inhibition was “inactive”.

What about the Drug transport [3] of the same compound?
The Drug transport was “Active”.

For N=C(N)c1ccc(-c2ccc(-c3ccc4ccc(C(=N)N)cc4c3)cc2)cc1, which ΔTm (HOXA9 DNA binding site [15]) is on record?
Its ΔTm is 8 °C.

With N=C(N)c1ccc(-c2cccc(-c3nc4cc(C(=N)N)ccc4[nH]3)c2)cc1 as the compound, how does the Drug transport [3] read?
The Drug transport was “Not Active”.

For Cn1c(-c2ccc(-c3ccc(C(=N)N)cc3)s2)nc2cc(C(=N)N)ccc21, which inhibition (HOXA9 DNA binding site [2]) is on record?
The inhibition was “inactive”.

What about the Drug transport [3] of the same compound?
The Drug transport was “Active”.

Which Drug transport [1] does the source give for N=C(N)c1ccc(-c2ccc(-c3nc4cc(C(=N)N)ccc4[nH]3)o2)cc1 here?
The Drug transport was “Active”.

And the inhibition (HOXA9 DNA binding site [2])?
Its inhibition is “inactive”.

With N=C(N)c1ccc(-c2ccc(-c3cc4ccc(C(=N)N)cc4[nH]3)o2)cc1 as the compound, how does the Activity ([4]; dose 15 µM, time 24 hrs) read?
The Activity was 11.76%.

And the ΔTm (HOXA9 DNA binding site [12])?
Its ΔTm is over 10 °C.

What about the inhibition (HOXA9 DNA binding site [2]) of the same compound?
Its inhibition is “Active”.

And the Drug transport [3]?
The Drug transport was “Active”.

What about the ΔTm (HOXA9 DNA binding site [16]) of the same compound?
The ΔTm was 7 °C.

With N=C(N)c1ccc(-c2cnc(-c3ccc(C(=N)N)cc3)o2)cc1 as the compound, how does the inhibition (HOXA9 DNA binding site [2]) read?
Its inhibition is “inactive”.

What does the source list for N=C(N)c1ccc(-c2ccc(-c3nc4ccc(C(=N)N)cc4[nH]3)o2)nc1?
Drug transport [1]: Active; Drug transport [3]: Active

Which Drug transport [3] does the source give for COc1cc(C(=N)N)ccc1-c1ccc(-c2cc3ccc(C(=N)N)cc3[nH]2)o1 here?
The Drug transport was “Active”.

Which Drug transport [1] does the source give for Cc1cc(C(=N)N)ccc1-c1ccc(-c2nc3ccc(C(=N)N)cc3[nH]2)o1 here?
The Drug transport was “Active”.

What does the source list for Cn1c(-c2ccc(-c3ccc(C(=N)N)cc3)o2)nc2cc(C(=N)N)ccc21?
inhibition (HOXA9 DNA binding site [2]): inactive; Drug transport [3]: Active

For N=C(N)c1ccc(-c2ccc(-c3cc4cc(C(=N)N)ccc4[nH]3)o2)nc1, which Drug transport [3] is on record?
The Drug transport was “Active”.

Which Activity [8] does the source give for N=C(N)c1ccc(-c2ccc(-c3cc4ccc(C(=N)N)cc4[nH]3)s2)nc1 here?
The Activity was 4.48%.

And the Activity [9]?
The Activity was 22.55%.

What about the Activity [10] of the same compound?
Its Activity is 6.21%.

What about the Activity [11] of the same compound?
Its Activity is 67.95%.

And the ΔTm (HOXA9 DNA binding site [12])?
The ΔTm was over 10 °C.

And the ΔTm (HOXA9 DNA binding site [16])?
Its ΔTm is 7 °C.

What about the Activity [13] of the same compound?
The Activity was 39.4%.

And the Activity [14]?
Its Activity is 9.5%.
